One data set concerns DO11.10 T cell clones. Description: Ca2+ imaging with P2 receptor agonists. It counts as cell-based, mouse.
For data set [1], the system named is crt^−/− CD4^+ T cells.
The next data set deals with ERK. Description: ERK phosphorylation time course after CD3 stimulation, TCR signaling blocked with PP2 at 30 min. Type of data set: cell-based, mouse. As to conditions: for ERK phosphorylation / activity: added in combination with PP2. As for the experimental part:
(§1) After 30 min of stimulation, cells were either left untreated (first panel on the left), or treated with the src-like kinase inhibitor PP2 either alone (second panel) or in combination with oATP (third panel) or ARL (fourth panel).
(§2) In order to distinguish between TCR dependent and independent ERK activation, TCR signaling was blocked at 30 min after CD3 activation with the tyrosine kinase inhibitor PP2, which inhibits TCR dependent Ick/fyn src-like kinase activity.

Data set [2] relates to naïve CD4^+ T cells. Put plainly: IL-2 ELISA in culture supernatants, plate-bound CD3 and CD28 stimulation. Type of data set: cell-based, mouse. The text has this: An inhibitory effect of oATP on peripheral blood T cell proliferation has been described (Baricordi et al., Blood 87:682-690 (1996)). […] We therefore hypothesize that ATP released from activated T cell is part of an autocrine loop, which plays an essential role in productive T cell activation.

The next data set has as its system MAPK. Put plainly: Protracted MAPK (p38, Erk) activation after 16 h CD3 stimulation. Type of data set: cell-based, mouse. As to conditions: crt^−/− T cells, CD3 antibodies 16 h.
The next data set concerns NFAT1. Put plainly: NFAT1 nuclear localization after T cell stimulation. It counts as cell-based, mouse. As for the experimental part:
as §2
NFAT nuclear translocation without concomitant MAPK activation, which can be obtained by ionomycin treatment, implements a transcriptional program leading to T cell anergy (Macian et al., Cell 109:719-731 (2002)). […] Then, we hypothesized that activation of T cells in the presence of oATP could induce T cell anergy.

For a further data set, the system named is naive CD4 T cells. Put plainly: T cell proliferation by CFSE dilution, plate-bound CD3 and CD28 mAbs. As to conditions: IL-2 at 250 U/ml; PMA. It counts as cell-based, mouse.
A further data set deals with Egr2 and Egr3. Description: Real-time PCR of anergy related genes Egr2 and Egr3. Type of data set: cell-based, mouse. As to conditions: PMA together with oATP. The text has this: NFAT nuclear translocation without concomitant MAPK activation, which can be obtained by ionomycin treatment, implements a transcriptional program leading to T cell anergy (Macian et al., Cell 109:719-731 (2002)). […] Then, we hypothesized that activation of T cells in the presence of oATP could induce T cell anergy. […] The effect of oATP was not due to altered turn-over of the TCR/CD3 complex at the cell surface, as determined by FACS analysis (data not shown).

For the next data set, the system named is human T cells. Description: Proliferation of CFSE-loaded T cells, plate-bound anti-CD3/28 (FACS). Type of data set: cell-based. The conditions noted are these: 100 μM oATP or 200 μM of PX10 peptide, four days. The method, then:
Our results point to a role for pannexin hemichannels in ATP release in T cells. […] CFSE-loaded human T cells were stimulated with plate-bound anti-CD3/28 antibodies in the presence of 100 μM oATP or 200 μM of PX10 peptide. Four days later, the proliferation was measured by FACS analysis.

In the next data set the test system is T cell clones. Put plainly: Cellular ATP content by luciferase assay after TCR triggering. It counts as cell-based. The conditions noted are these: 200 μM PX10 preincubation 30 minutes. The method, then:
FIG. 10: The pannexin blocking peptide PX10 increases the intracellular ATP concentration upon TCR triggering.
Finally, we tested whether the inhibition of pannexin-mediated ATP release might lead to a fast accumulation of ATP following T cell activation. T cell clones were preincubated with 200 μM PX10 for 30 minutes. They were then stimulated with biotinylated anti-CD3 antibodies followed by crosslinking with strepavidine. Samples were collected at indicated time points, detergent-solubilized and frozen until their use in a standard luciferase assay to determine cellular ATP content.

A further data set has as its system mouse T cells. Description: IL-2 secretion by ELISA. Type of data set: cell-based.
The test system of the next data set is ZAP-70. Description: ZAP-70 phosphorylation after CD3 stimulation, PP2 added at 30 min. It counts as cell-based, mouse. The conditions noted are these: PP2 at 30 min after CD3 activation. As for the experimental part: as §1, §2
The subject of a further data set is CRAC channels. Put plainly: Ca2+ dependent CRAC inactivation, two sequential Ca2+ additions after tapsigargin store depletion (Fura-2). As to conditions: in the presence of CCCP. Type of data set: cell-based, mouse. The method, then:
FIG. 1: Increased mitochondrial Ca^2+ buffering in crt^−/− T cells. • a) After ER Ca^2+ depletion with tapsigargin, CCE was induced in crt^−/− and crt^+/+ T cell clones by the addition of 0.5 mM Ca^2+ to the extracellular medium (see Example 1). After complete washout of extracellular Ca^2+, the mitochondrial Ca^2+ buffering was visualized by the addition of ionomycin. • b) Histograms representing mitochondrial Ca^2+ content after CCE with 0.5, 1 and 2 mM extracellular Ca^2+ in crt^−/− and crt^+/+ T cell clones. • c) Increased mitochondrial Ca^2+ buffering in crt^−/− T cells retards CRAG inactivation. Cells were treated with tapsigargin followed by two separate additions of Ca^2+ to the extracellular medium (see Example 1) (see also FIG. 2C). The rate of rise of cytosolic Ca^2+ concentration was calculated at the first and second addition of Ca^2+. […] (*, P<0.05, **, P<0.001, ***, P<0.0001)
FIG. 2: Reduced Ca^2+ in the ER, unaltered mitochondrial membrane potential and decreased CRAC inactivation in crt^−/− T cells. • a) The ER Ca^2+ content of Fura-2 loaded D011.10 TCR transgenic T cell clones was assessed by addition of the SERCA pump inhibitor tapsigargin to a medium devoid of Ca^2+ (see Example 1). The passive leak of Ca^2+ from the ER into the cytosol is seen as a slow transient rise in the cytosolic Ca^2+ concentration. […]

The subject of data set [3] is crt^−/− CD4^+ T cells. Description: Propidium iodide (PI) staining of treated cells.
The test system of data set [4] is naïve CD4^+ T cells. Description: ATP synthesis after T cell activation with CD3 antibodies. It counts as cell-based, mouse.
Text: CCE induced by antigenic activation of crt^−/− CD4^+ T cells might therefore be linked to a higher ATP production compared to crt^+/+ cells.

“Also recorded” adds a separate entry of the source. Where two headings read alike, the source gives them in different places.

As for `Nc1ncnc2c1ncn2[C@@H]1O[C@H](COP(=O)(O)OP(=O)(O)OP(=O)(O)O)[C@@H](O)[C@H]1O` [ATP, adenosine triphosphate], in the data set on DO11.10 T cell clones (1 mM ATP, Ca^2+ present in the extracellular medium), the “cells with calcium rise” value turned out to be 52%. Besides, in the data set on DO11.10 T cell clones (absence of extracellular Ca^2+), the cytosolic calcium rise entry was “moderate cytosolic calcium rise”.
`CSc1nc(N)c2ncn([C@@H]3O[C@H](COP(=O)(O)OP(=O)(O)OP(=O)(O)O)[C@@H](O)[C@H]3O)c2n1` [MeSATP]: the “cells activated / responsive to P2 subtype preferring agonist” value (from here on “cells activated / responsive”) in the data set on DO11.10 T cell clones is 35%.
Take `Cc1nc(N=Nc2ccc(S(=O)(=O)O)cc2S(=O)(=O)O)c(COP(=O)(O)O)c(C=O)c1O` [PPADS]: the “cellular damage due to toxicity, PI staining versus untreated” value in the data set on crt^−/− CD4^+ T cells [1] is reported as “did not reveal any difference”. Besides, the “ERK phosphorylation / activity” value in the data set on ERK is on record as “significant inhibition”. Besides, the “IL-2 in the cell culture supernatant” value in the data set with naïve CD4^+ T cells [2] (versus untreated cells, 48 h) is on record as “Analogous inhibition”. Moreover, in the data set with MAPK, the “prolonged activation of MAPK (p38 MAPK and Erk)” value is “almost completely abolished”. The “nuclear localization of NFAT1” value with NFAT1 is reported as “did not significantly affect”.
For BzATP, the “cells activated / responsive” value with DO11.10 T cell clones is reported as 33%.
In the case of `CCCCCCCCCCCCCC(=O)O[C@@H]1[C@@H](C)[C@@]2(O)[C@@H](C=C(CO)C[C@]3(O)C(=O)C(C)=C[C@@H]23)[C@@H]2C(C)(C)[C@]12OC(C)=O` [PMA, phorbol 12-myristate 13-acetate, reference compound], the “oATP and PPADS-dependent inhibition of IL-2 expression on addition of PMA” value with naïve CD4^+ T cells [2] (contemporaneous addition) is recorded as “rescued”. The “oATP inhibition of T cell proliferation on addition of second agent” value with naive CD4 T cells is on record as “completely restored”. The “Egr2 and Egr3 transcription” value with Egr2 and Egr3 is reported as “robustly reduced”.
Regarding `Nc1ncnc2c1ncn2[C@@H]1O[C@H](COP(=O)(O)CP(=O)(O)OP(=O)(O)O)[C@@H](O)[C@H]1O` [αβMeATP], in the data set on DO11.10 T cell clones, the “cells activated / responsive” value stood at 18%.
In the case of `CSc1nc(N)c2ncn([C@@H]3O[C@H](COP(=O)(O)OP(=O)(O)O)[C@@H](O)[C@H]3O)c2n1` [2MeSADP], the “cells activated / responsive” value with DO11.10 T cell clones is on record as 31%.
Turning to WRQAAFVDSY [PX10], the values for the T cell proliferation entry in the data set on human T cells and in the data set on human T cells (listed as PX10 peptide) were “comparably to oATP” and “strongly inhibited”, respectively. In the data set with T cell clones, the “intracellular ATP after TCR triggering” value is “rapid intracellular rise of ATP; also recorded: increases”. The IL-2 secretion result with mouse T cells is “strongly inhibited”.
Regarding `CCN(CC)c1ncnc2c1ncn2[C@@H]1O[C@H](COP(=O)(O)OP(=O)(O)C(Br)(Br)P(=O)(O)O)[C@@H](O)[C@H]1O` [ARL67156], the entries for the “ERK phosphorylation / activity” value in the data set with ERK and with ERK (listed as ARL) were “increase” and “increased”, respectively.
In the case of `CC(C)(C)n1nc(-c2ccc(Cl)cc2)c2c(N)ncnc21` [PP2], the “ERK phosphorylation at later time points” value with ERK (PP2 alone) is on record as “did not significantly affect; also recorded: less affected”. Moreover, the “TCR-dependent phosphorylation of ZAP-70” value with ZAP-70 was “affected; also recorded: efficiently inhibited”.
Consider `N#CC(C#N)=NNc1cccc(Cl)c1` [CCCP], for which the “Ca^2+ dependent inactivation of CRAC channels, crt^−/− versus crt^+/+ cells” value with CRAC channels is listed as “comparable”.
As for `CC[C@H]1/C=C/C=C/C[C@@H](C)[C@H](O)[C@@](C)(O)C(=O)[C@@H](C)[C@H](O)[C@@H](C)C(=O)[C@@H](C)[C@H](O)[C@@H](C)/C=C/C(=O)O[C@@H]2[C@H](C)[C@H](CC1)O[C@]1(CC[C@H](C)[C@H](C[C@@H](C)O)O1)[C@H]2C` [oligomycin], the “prolonged activation of MAPK (p38 MAPK and Erk)” value with MAPK is given as “almost completely abolished”. In addition, in the data set on crt^−/− CD4^+ T cells [3], the “cellular damage due to toxicity, PI staining versus untreated” value is “did not reveal any difference”. Moreover, the “nuclear localization of NFAT1” value in the data set with NFAT1 was “did not significantly affect”. Further, the “activation induced ATP synthesis” value with naïve CD4^+ T cells [4] was “abolished”.

The record behind these values is patent US20110076258A1, “METHODS OF MODULATING T CELL- DEPENDENT IMMUNE RESPONSES” (Converge Biotech Inc., priority 2008, published 2011).
